Test results published in US20070072931A1, “Pharmaceutical composition and a method for treatment of prostate cancer” (priority 2005, published 2007).
Entries after “also recorded” stand apart in the source; their conditions may differ.

Legend:
cardiomyocytes = test: Cell viability, primary culture of rat neonatal cardiomyocytes; assay type: cell-based; conditions: 9 μg/ml
Description: (§1) The cardiomyocytes from 2-day-old neonatal rat were isolated by the method previously described by Yoshihiro Kimura (1994) with modifications. Briefly, heart was excised and minced in pre warmed (37° C.) Ads buffer (1.2M NaCl, 198 mM HEPES, 54 mM KCl, 8.3 mM MgSO4, 55.4 mM glucose, 95 mM NaH2PO4), digested in type II Collagenase 0.05% and Pancreatin in three successive digestions of 15 minutes each. Supernatant was pooled and cells palleted at 2000 g, for 10 minutes. Cells were resuspended and plated in collagen coated T-25 flasks in Medium-199 enriched with 10% FBS and 1% antibiotic-antimycotic.
as §1, with “Briefly, the” for “Briefly,”, “pre-warmed” for “pre warmed”, “3-succesive” for “three successive”, “g,” for “g, for”
(§2) To evaluate the specificity of mahanine, its effect on other cells in primary culture, such as, hepatocytes, cardiomyocyte and skeletal muscle was examined.

LNCaP cells = test: Cell killing / viability of androgen dependent prostate cancer cell line LNCaP; assay type: cell-based; conditions: mahanine 1, 2, 3 μg/ml vs untreated cells
Description: FIG. 2 is a graph showing dose response of PC-3 and LNCaP cell line to mahanine. […] The dose used was 1, 2, 3 μg/ml in comparison to control untreated cells (0) in both the cell lines.

caspase 9 = test: Immunoblotting of caspase 9 activation in PC-3 cells; assay type: cell-based, human; conditions: 3 μg/ml
Description: (§3) PC-3 cells (1×10^6 cells) were incubated with complete medium. Cells were detached using cell dissociation reagent from Sigma Chemical company St Louis, Mo., USA. They were collected by centrifugation at 1500 g for 10 minutes and boiled for 5-7 minutes in sodium dodecyl sulphate (SDS) buffer (pH 6.8). Aliquots containing 60 μg total cellular protein were separated by 10% SDS-PAGE and transferred to PVDF membrane (MILIPORE, Bedford, Mass., USA). Membrane was blocked with blocking buffer for 1 hr at room temperature and probed with desired primary antibody caspase 9, Bcl-xl, pAkt/1/2/3(ser 473), anti PARP, Cytochrome C (Santa-Cruz Biotechnology, Inc. USA). Anti caspase 3 that recognizes procaspase 3 (32 kDa) and the active cleaved caspase 3 (17 kDa) (BD Biosciences, Mountainview, Calif.). Akt, cleaved caspase 9 (Cell Signaling technology, Beverly, Mass.) overnight at 4° C. followed by alkaline phosphatase conjugated secondary antibody and detection.
(§4) PC-3 cells (1×10^6 cells) were incubated with complete medium alone or with 3 μg/ml of Mahanine (MK-3) as indicated. Cells were detached using cell dissociation reagent from Sigma Chemical company St Louis, Mo., USA. The cells were collected by centrifugation at 1500 g for 10 minutes and boiled for 5-7 minutes in SDS buffer (pH 6.8). […]

[1] = Acute toxicity as per WHO guidelines, haematological and biochemical parameters; assay type: in vivo, Mice; Balb/C
Description: Experiments for acute toxicity were performed as per the guidelines of WHO.
Experimental subject: Mice; Balb/C Male, female; 25 gms body weight (approx).
16 mice were divided into 2 groups; 8 animals received the dosage of @2 gm/kg body weight of combined extract. Equal volume of the vehicle (DMSO) was given to 8 animals, wherein the dose was administered orally once and then animals were sacrificed and haematological parameters checked 15 days after treatment.
Experimental subject: Mice; Balb/C Male; female; 25 gms body weight (approx).
16 mice were divided into 2 groups 8 animals were received the compound @2 gm/kg body weight. Equal volume of the vehicle (DMSO) was given to 8 animals, wherein the dose was administered orally once, and then animals were sacrificed and haematological and biochemical parameters checked 15 days after treatment.
Biochemical parameters were assessed for the pure molecule mahanine. Since it is a pure molecule there is a need to see the biochemical profile, therefore we concentrated on the biochemical parameters only. The experimental procedure followed was the same as that for the combined extract described above.

Bcl-xl = test: Immunoblotting of Bcl-xl expression in PC-3 cells; assay type: cell-based, human; conditions: 36 hrs (mahanine 3 μg/ml)
Description: as §3, §4

Akt = test: Immunoblotting of Akt and pAkt (ser 473) in PC-3 cells; assay type: cell-based, human
Description: as §3
PC-3 cells (1×10^6 cells) were incubated with complete medium alone or with 3 μg/ml of Mahanine (MK-3) as indicated. Cells were detached using cell dissociation reagent from Sigma Chemical company St Louis, Mo., USA. The cells were collected by centrifugation at 1500 g for 10 minutes and boiled for 5-7 minutes in SDS buffer (pH 6.8). Aliquots containing 60 μg total cellular protein were separated by 10% SDS-PAGE and transferred to PVDF membrane (MILIPORE, Bedford, Mass., USA). Membrane was blocked with blocking buffer for 1 hr at room temperature and probed with desired primary antibody caspase 9, Bcl-xl, pAkt/1/2/3(ser 473), anti PARP, Cytochrome C (Santa-Cruz Biotechnology Inc., USA). Anti-caspase 3 that recognizes procaspase 3 (32 kDa) and the active cleaved caspase 3 (17 kDa) (BD Biosciences, Mountainview, Calif.) were also used. Akt, cleaved caspase 9 (Cell Signaling Technology, Beverly, Mass.) overnight at 4° C. followed by alkaline phosphatase conjugated secondary antibody and detection.

caspase 3 = test: Immunoblotting of caspase 3 activation in PC-3 cells; assay type: cell-based, human
Description: as §3, §4

cytochrome c = test: Immunofluorescence of cytochrome c release in PC-3 cells; assay type: cell-based, human
Description: Cells were cultured on glass cover slips. Both control and treated cells were fixed with PBS containing 4% paraformaldehyde for 2 hrs at 4° C. The cells were permiabilized with 0.1% Triton X-100 in PBS and then incubated with rabbit polyclonal anti-cytochrome c antibody (Santa Cruz, USA, dilution 1:50) for 3 hrs followed by incubation with FITC-conjugated secondary antibody (goat anti-rabbit, Santa Cruz, 1:50) for another 1 hr with rigorous washing in all the above steps with PBS. 1 μg/ml DAPI was also added in each set. The stained cells were observed under fluorescence microscope (Olympus BX51 microscope, Tokyo, Japan) and the images were captured with Cool Snap Pro camera.

hepatocytes = test: Cell viability, primary culture of rat neonatal hepatocytes; assay type: cell-based; conditions: 9 μg/ml
Description: (§5) The hepatocytes from 2-day-old neonatal rats were isolated by method described previously by William E. Russell (1997) with modifications. Briefly, the livers were perfused through the portal vein with a calcium-free solution consisting of 150 mM NaCl, 2.8 mM KCl, 5.5 mM glucose, and 25 mM HEPES (pH 7.6) for 10 minutes, followed by mincing and digestion in DMEM containing 0.05% collagenase type IV for 30 minutes. The cells were centrifuged (2000 g, 10 minutes) and dispersed in DMEM enriched with 10% FBS, 1% antibiotic-antimycotic.
The hepatocytes from 2-day-old neonatal rat were isolated by method described previously by William E Russell (1997) with modifications.
as §5, with “Briefly,” for “The hepatocytes from 2-day-old neonatal rats were isolated by method described previously by William E. Russell (1997) with modifications. Briefly,”
as §2

PARP = test: Immunoblotting of PARP cleavage in PC-3 cells; assay type: cell-based, human; conditions: 3 μg/ml
Description: as §3, §4

skeletal muscle cells = test: Cell viability, primary culture of neonatal rat skeletal muscle; assay type: cell-based; conditions: 9 μg/ml
Description: The skeletal muscles from 2-day-old neonatal rats were isolated by method described previously by William E. Russell (1997) with modifications. Briefly, Soleus muscle was dissected, minced and digested with 0.2% Type II Collagenase and 0.05% trypsin in PBS pH 7.4, 0.15M NaCl. The dispersed skeletal muscle cells were centrifuged (100 g, 10 minutes) washed and resuspended in PBS with 1% antibiotic-antimycotic. Cells were preincubated for 30 minutes at 37° C., 95% air/5% CO2. The floating muscle cells were plated on collagen coated T-25 flasks in DMEM enriched with 10% FBS and 1% antibiotic-antimycotic.
The skeletal muscles from 2-day-old neonatal rat were isolated by method described previously by William E. Russell (1997) with modifications.
Briefly, Soleus muscles were dissected, minced and digested with 0.2% Type II Collagenase and 0.05% trypsin in PBS, pH 7.4, 0.15M NaCl. The dispersed skeletal muscle cells were centrifuged (1000 g, 10 minutes) washed and re-suspended in PBS with 1% antibiotic-antimycotic. Cells were preincubated for 30 minutes at 37° C., 95% air/5% CO2. The floating muscle cells were plated on collagen coated T-25 flasks in DMEM enriched with 10% FBS and 1% antibiotic-antimycotic.
as §2

PC-3 cells = test: Viability of PC-3 by MTT assay (CellTiter 96 AQueous One); assay type: cell-based, human; conditions: mahanine 1, 2, 3 μg/ml vs untreated cells
Description: Human prostate cancer cell line, PC-3 (PTEN-ve, androgen independent) from American Type Culture Collection, Manassas, Va., USA was used. Cells were grown in Dulbecco's Modified Eagle Medium (DMEM) supplemented with 10% Fetal Bovine Serum (FBS) and 1% antibiotic-antimycotic. Cells were cultured in 37° C. in an atmosphere of 5% CO2.
Viability of PC-3 after treatment as at the indicated times was determined by MTT assay—CellTiter 96® AQoueus One Solution Cell Proliferation Assay (Promega Corp., Madison, Wis.), as per manufacturer's protocol. Briefly, 10,000 cells were plated in triplicate in 96 well plates and incubated for 12 hrs in complete media. […] Absorbance was recorded at 490 nm with 96 well plate readers. Reference wavelength of 630 nm was used to reduce background contributed by non-specific absorbance due to cell debris. […]
Viability of PC-3 after treatment as at the indicated times was determined by MTT assay—CellTiter 96® AQoueus One Solution Cell Proliferation Assay (Promega Corp., Madison, Wis.), as per manufacturer's protocol.
Briefly, 10,000 cells were plated in triplicate in 96 well plates and incubated for 12 hrs in complete media. […] Absorbance was recorded at 490 nm with 96 well plate readers. Reference wavelength of 630 nm was used to reduce background contributed by non-specific absorbance due to cell debris.

Substance: mahanine
- killing of cardiomyocytes in primary culture (cardiomyocytes): did not kill
- killing / apoptosis of androgen dependent cell line LNCaP (LNCaP cells): in a dose and time dependent manner
- earliest time at which cleaved caspase 9 could be detected (caspase 9): 6 h
- time course of cleaved caspase 9 (caspase 9): steadily increased at 12 hrs and 24 hrs, and declined at 36 hrs
- indication of toxicity in treated mice ([1]; Balb/C mice, 2 gm/kg orally once, 15 days after treatment): no indication of any toxicity
- Creatinine ([1]; Balb/C mice, 2 gm/kg orally once, 15 days after treatment, vehicle control 3.82): 3.72 mg/dL
- Hb ([1]; Balb/C mice, 2 gm/kg orally once, 15 days after treatment, vehicle control 10.69): 10.713 gm/dl
- SGPT ([1]; Balb/C mice, 2 gm/kg orally once, 15 days after treatment, vehicle control 32.0): 30.7 units/ml
- Urea ([1]; Balb/C mice, 2 gm/kg orally once, 15 days after treatment, vehicle control 35.4): 48.6 mg/dL
- WBC ([1]; Balb/C mice, 2 gm/kg orally once, 15 days after treatment, vehicle control 92): 89
- SGOT ([1]; Balb/C mice, 2 gm/kg orally once, 15 days after treatment, vehicle control 147.5): 174.0 units/ml
- RBC ([1]; Balb/C mice, 2 gm/kg orally once, 15 days after treatment, vehicle control 1029): 1032
- change in acute toxicity data until 1 month ([1]; mice, until 1 month): no change
- Bcl-xl expression at 36 hrs (Bcl-xl): significantly decreased; also recorded: considerably downregulated
- effect on steady state levels of Akt protein (Akt; PC-3 cells): no effect
- inhibition of phosphorylation of Akt (Akt; PC-3 cells): in a dose and time dependent manner
- time at which Akt serine 473 phosphorylation was inhibited (Akt; PC-3 cells (mahanine 3 μg/ml)): 24 h
- time by which Akt activation was totally blocked (Akt; PC-3 cells (mahanine 3 μg/ml)): ≤ 36 h
- time of peak of caspase 3 activity (caspase 3; PC-3 cells (mahanine 3 μg/ml)): 60 h
- activation of caspase 3 at 48 hrs (caspase 3; PC-3 cells, 48 hrs (mahanine 3 μg/ml)): considerably increased
- leakage of cytochrome c from the mitochondria (cytochrome c): caused leakage of cytochrome c
- killing of hepatocytes in primary culture (hepatocytes): did not kill
- time of maximum cleavage of PARP (89 kDa fragment) (PARP): 36 h
- killing of skeletal muscle cells in primary culture (skeletal muscle cells): did not kill
- killing / apoptosis of androgen independent cell line PC-3 (PC-3 cells): in a dose and time dependent manner
- killing / apoptosis of androgen independent cell line PC-3 (PC-3 cells; listed as mahanine): in a time and dose dependent manner
